Results on 22 compounds are retold here after patent US20220112187A1, “PYRAZOLOPYRIDINE AMINE COMPOUNDS FOR THE TREATMENT OF AUTOIMMUNE DISEASE” (Hoffmann-La Roche Inc., priority 2018, published 2022).

This experiment deals with T1, human TLR9 (Homo sapiens, UniProt Q9NR96).
T1 sequence (Q9NR96 26-1032): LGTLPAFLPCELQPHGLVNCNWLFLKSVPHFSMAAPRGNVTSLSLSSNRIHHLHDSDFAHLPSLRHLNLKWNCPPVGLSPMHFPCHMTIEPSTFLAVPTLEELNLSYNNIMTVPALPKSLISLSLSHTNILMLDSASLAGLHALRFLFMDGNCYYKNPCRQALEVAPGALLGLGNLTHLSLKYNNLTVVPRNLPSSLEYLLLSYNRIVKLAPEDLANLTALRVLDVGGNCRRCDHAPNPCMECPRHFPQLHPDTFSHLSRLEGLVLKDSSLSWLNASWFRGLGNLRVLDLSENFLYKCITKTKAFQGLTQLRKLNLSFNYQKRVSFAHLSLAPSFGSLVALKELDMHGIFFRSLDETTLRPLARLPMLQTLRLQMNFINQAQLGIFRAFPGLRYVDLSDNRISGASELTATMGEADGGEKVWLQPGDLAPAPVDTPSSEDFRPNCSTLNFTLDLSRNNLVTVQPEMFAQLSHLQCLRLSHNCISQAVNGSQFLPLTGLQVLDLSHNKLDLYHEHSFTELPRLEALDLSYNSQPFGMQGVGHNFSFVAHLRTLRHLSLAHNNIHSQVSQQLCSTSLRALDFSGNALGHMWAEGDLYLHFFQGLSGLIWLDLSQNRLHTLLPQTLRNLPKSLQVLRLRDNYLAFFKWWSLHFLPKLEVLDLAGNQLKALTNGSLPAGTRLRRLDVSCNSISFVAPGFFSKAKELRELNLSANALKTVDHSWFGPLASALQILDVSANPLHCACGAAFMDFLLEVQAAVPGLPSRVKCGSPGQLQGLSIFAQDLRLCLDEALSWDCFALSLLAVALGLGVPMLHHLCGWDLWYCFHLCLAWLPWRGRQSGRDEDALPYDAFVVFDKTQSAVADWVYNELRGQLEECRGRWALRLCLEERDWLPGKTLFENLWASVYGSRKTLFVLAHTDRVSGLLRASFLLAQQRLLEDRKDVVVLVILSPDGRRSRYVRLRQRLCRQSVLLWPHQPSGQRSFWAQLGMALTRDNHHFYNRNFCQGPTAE
Kind of experiment: HEK293-Blue-hTLR-9 cells assay (SEAP reporter, ODN2006 stimulation). In kind it is cell-based. The settings on record: HEK293-Blue-hTLR9 cells, ODN2006 ligand, 20 hrs incubation. The source says: A stable HEK293-Blue-hTLR-9 cell line was purchased from InvivoGen (Cat. #: hkb-htlr9, San Diego, Calif., USA). These cells were originally designed for studying the stimulation of human TLR9 by monitoring the activation of NF-κB. A SEAP (secreted embryonic alkaline phosphatase) reporter gene was placed under the control of the IFN-β minimal promoter fused to five NF-κB and AP-1-binding sites. The SEAP was induced by activating NF-κB and AP-1 via stimulating HEK-Blue hTLR9 cells with TLR9 ligands. Therefore the reporter expression was declined by TLR9 antagonist under the stimulation of a ligand, such as ODN2006 (Cat. #: tlr1-2006-1, Invivogen, San Diego, Calif., USA), for incubation of 20 hrs. The cell culture supernatant SEAP reporter activity was determined using QUANTI-Blue™ kit (Cat. #: rep-qb1, Invivogen, San Diego, Calif., USA) at a wavelength of 640 nm, a detection medium that turns purple or blue in the presence of alkaline phosphatase.
HEK293-Blue-hTLR9 cells were incubated at a density of 250,000˜450,000 cells/mL in a volume of 170 μL in a 96-well plate in Dulbecco's Modified Eagle's medium (DMEM) containing 4.5 g/L glucose, 50 U/mL penicillin, […], […], 2 mM L-glutamine, 10% (v/v) heat-inactivated fetal bovine serum with addition of 20 μL test compound in a serial dilution in the presence of final DMSO at 1% and 10 μL of 20 uM ODN2006 in above DMEM, perform incubation under 37° C. in a CO2 incubator for 20 hrs. Then 20 μL of the supernatant from each well was incubated with 180 μL Quanti-blue substrate solution at 37° C. for 2 hrs and the absorbance was read at 620-655 nm using a spectrophotorneter. The signalling pathway that TLR9 activation leads to downstream NF-κB activation has been widely accepted, and therefore similar reporter assay was modified for evaluating TLR9 antagonist.
In the case of `C[C@@H]1CN(c2ccc(C#N)n3nccc23)C[C@H](CN2CCOC3(CCNCC3)C2)O1` [Example 71, 4-[(2R,6S)-2-methyl-6-(1-oxa-4,9-diazaspiro[5.5]undecan-4-ylmethyl)morpholin-4-yl]pyrazolo[1,5-a]pyridine-7-carbonitrile], the IC50 (usually the concentration at which inhibition is half-maximal) turned out to be 510 nM. Under `C[C@@H]1CN(c2ccc(C#N)n3nccc23)C[C@H](CN2CCC3(CCCCN3)C2)O1` (stereo partly drawn) [Example 42, 4-[(2S,6R)-2-(2,6-diazaspiro[4.5]decan-2-ylmethyl)-6-methyl-morpholin-4-yl]pyrazolo[1,5-a]pyridine-7-carbonitrile] stands 1700 nM.

For the compound `C[C@@H]1CN(c2ccc(C#N)n3nccc23)C[C@H](CN2CCC3NCC3C2)O1` (stereo partly drawn) [Example 70, 4-[(2S,6R)-2-(3,7-diazabicyclo[4.2.0]octan-3-ylmethyl)-6-methyl-morpholin-4-yl]pyrazolo[1,5-a]pyridine-7-carbonitrile], the IC50 was found to be 200 nM. In turn, `C[C@@H]1CN(c2ccc(C#N)n3nccc23)C[C@H](CN2CCC3(CCNC3)C2=O)O1` (stereo partly drawn) [Example 21, 4-[(2R,6R)-2-methyl-6-[(1-oxo-2,7-diazaspiro[4.4]nonan-2-yl)methyl]morpholin-4-yl]pyrazolo[1,5-a]pyridine-7-carbonitrile] showed an IC50 of 16000 nM. In turn, `C[C@@H]1CN(c2ccc(C#N)n3ncc(F)c23)C[C@H](CN2CCCC3(CCNCC3)C2)O1` [Example 67, 4-[(2S,6R)-2-(2,9-diazaspiro[5.5]undecan-2-ylmethyl)-6-methyl-morpholin-4-yl]-3-fluoro-pyrazolo[1,5-a]pyridine-7-carbonitrile] returned an IC50 of 87 nM.

For the compound `C[C@@H]1CN(c2ccc(C#N)n3nccc23)C[C@H](CN2CCC(N3CCCCC3)CC2)O1` [Example 16, 4-[(2R,6S)-2-methyl-6-[[4-(1-piperidyl)-1-piperidyl]methyl]morpholin-4-yl]pyrazolo[1,5-a]pyridine-7-carbonitrile], 520 nM corresponded to half-maximal inhibition (IC50). Under `C[C@@H]1CN(c2ccc(C#N)n3nccc23)C[C@H](CN2CCC(N)(c3ccccc3)CC2)O1` [Example 73, 4-[(2S,6R)-2-[(4-amino-4-phenyl-1-piperidyl)methyl]-6-methyl-morpholin-4-yl]pyrazolo[1,5-a]pyridine-7-carbonitrile] stands 220 nM. Under `C[C@@H]1CN(c2ccc(C#N)n3nccc23)C[C@H](CN2CC3(CCNC3)CC2=O)O1` (stereo partly drawn) [Example 20, 4-[(2R,6R)-2-methyl-6-[(3-oxo-2,7-diazaspiro[4.4]nonan-2-yl)methyl]morpholin-4-yl]pyrazolo[1,5-a]pyridine-7-carbonitrile] stands 12000 nM. Then `C[C@@H]1CN(c2ccc(C#N)n3nccc23)C[C@H](CN2CCC(N3CCCCCC3)CC2)O1` [Example 4, 4-[(2S,6R)-2-[[4-(azepan-1-yl)-1-piperidyl]methyl]-6-methyl-morpholin-4-yl]pyrazolo[1,5-a]pyridine-7-carbonitrile], with 280 nM; and `C[C@@H]1CN(c2ccc(C#N)n3nccc23)C[C@H](CN2CCCC3NCCCC32)O1` (stereo partly drawn) [Example 64, 4-[(2S,6R)-2-(3,4,4a,5,6,7,8,8a-octahydro-2H-1,5-naphthyridin-1-ylmethyl)-6-methyl-morpholin-4-yl]pyrazolo[1,5-a]pyridine-7-carbonitrile], with 2200 nM. As for `C[C@@H]1CN(c2ccc(C#N)n3nccc23)C[C@H](CN2CCN(C3CCNCC3)CC2Cc2ccccc2)O1` (stereo partly drawn) [Example 77, 4-[(2S,6R)-2-[[2-benzyl-4-(4-piperidyl)piperazin-1-yl]methyl]-6-methyl-morpholin-4-yl]pyrazolo[1,5-a]pyridine-7-carbonitrile], the IC50 was determined as 150 nM.

On to `C[C@@H]1CN(c2ccc(C#N)n3nccc23)C[C@H](CN2CCC(N3CCCC3)CC2)O1` [Example 54, 4-[(2R,6S)-2-methyl-6-[(4-pyrrolidin-1-yl-1-piperidyl)methyl]morpholin-4-yl]pyrazolo[1,5-a]pyridine-7-carbonitrile], for which the IC50 came to 510 nM. This IC50 is about 3.4-fold higher than that of the compound before.

Turning to `C[C@@H]1CN(c2ccc(C#N)n3nccc23)C[C@H](CN2CCC3NCCC3C2)O1` (stereo partly drawn) [Example 41, 4-[(2S,6R)-2-(1,2,3,3a,4,6,7,7a-octahydropyrrolo[3,2-c]pyridin-5-ylmethyl)-6-methyl-morpholin-4-yl]pyrazolo[1,5-a]pyridine-7-carbonitrile], the midpoint of inhibition, the IC50, lay at 140 nM. This IC50 is about 3.6-fold lower than that of the compound before.

Turning to `C[C@@H]1CN(c2ccc(C#N)n3nccc23)C[C@H](CN2CCNCC2Cc2ccccc2)O1` (stereo partly drawn) [Example 59, 4-[(2S,6R)-2-[(2-benzylpiperazin-1-yl)methyl]-6-methyl-morpholin-4-yl]pyrazolo[1,5-a]pyridine-7-carbonitrile], the IC50 is 1500 nM. Then `C[C@@H]1CN(c2ccc(C#N)n3nccc23)C[C@H](CN2CCNC3(CC3)C2)O1` [Example 40, 4-[(2S,6R)-2-(4,7-diazaspiro[2.5]octan-7-ylmethyl)-6-methyl-morpholin-4-yl]pyrazolo[1,5-a]pyridine-7-carbonitrile], with 13000 nM; and `C[C@@H]1CN(c2ccc(C#N)n3nccc23)C[C@H](CN2CC3CCC(C2)N3)O1` [Example 31, 4-[(2S,6R)-2-(3,8-diazabicyclo[3.2.1]octan-3-ylmethyl)-6-methyl-morpholin-4-yl]pyrazolo[1,5-a]pyridine-7-carbonitrile], with 10000 nM; and `C[C@@H]1CN(c2ccc(C#N)n3nccc23)C[C@H](CN2CCN(C)CC2)O1` [Example 15, 4-[(2R,6S)-2-methyl-6-[(4-methylpiperazin-1-yl)methyl]morpholin-4-yl]pyrazolo[1,5-a]pyridine-7-carbonitrile], with 23000 nM.

As for `C[C@@H]1CN(c2ccc(C#N)n3nccc23)C[C@H](CN2CCN(C(=O)CN)CC2)O1` [Example 14, 4-[(2S,6R)-2-[[4-(2-aminoacetyl)piperazin-1-yl]methyl]-6-methyl-morpholin-4-yl]pyrazolo[1,5-a]pyridine-7-carbonitrile], the IC50 is 3000 nM. Then `C[C@@H]1CN(c2ccc(C#N)n3nccc23)C[C@H](CN2C3CCCC2CC(N)C3)O1` (stereo partly drawn) [Example 65, Endo-4-[(2S,6R)-2-[(3-amino-9-azabicyclo[3.3.1]nonan-9-yl)methyl]-6-methyl-morpholin-4-yl]pyrazolo[1,5-a]pyridine-7-carbonitrile], with 140 nM. In turn, `CC1CC(N)CCN1C[C@H]1CN(c2ccc(C#N)n3nccc23)C[C@@H](C)O1` (stereo partly drawn) [Example 51, 4-[(2S,6R)-2-[(4-amino-2-methyl-1-piperidyl)methyl]-6-methyl-morpholin-4-yl]pyrazolo[1,5-a]pyridine-7-carbonitrile] returned a 50% inhibitory concentration (IC50) of 230 nM. Under `C[C@@H]1CN(c2ccc(C#N)n3nccc23)C[C@H](CN2CCC3(CCCCN3)CC2)O1` [Example 47, 4-[(2S,6R)-2-(1,9-diazaspiro[5.5]undecan-9-ylmethyl)-6-methyl-morpholin-4-yl]pyrazolo[1,5-a]pyridine-7-carbonitrile] stands 190 nM; under `C[C@@H]1CN(c2ccc(C#N)n3nccc23)C[C@H](CN2CCNCC2)O1` [Example 5, 4-[(2R,6S)-2-methyl-6-(piperazin-1-ylmethyl)morpholin-4-yl]pyrazolo[1,5-a]pyridine-7-carbonitrile], 890 nM.
